Test results reported in patent publication US8871934B2, “Fluorene compound and pharmaceutical use thereof” (Japan Tobacco Inc., priority 2008, dated 2014).
Like-named read-outs stand apart in the source and are kept apart here. Blank lines part the entries; values can stand above or below the molecule they belong to.

Target: human PDHK2 (hPDHK2) (Homo sapiens (Human), UniProt Q15119)
Assay: Inhibitory action of PDHK activity in vitro (kinase reaction, residual PDH activity measured)
Assay type: biochemical
[1] = PDHK inhibitory activity (class symbol)
[2] = read-out: PDHK inhibitory activity IC50
[3] = PDHK inhibitory activity, class symbol of IC50

Structure (SMILES): OCCn1cc(-c2cc(CO)c3c(c2)C(O)(C(F)(F)F)c2ccccc2-3)cn1 (stereo not shown) [compound 615]
IC50 [1]: 0.1 to 1 µM | IC50 [2]: 0.105 µM

Structure (SMILES): CCC(=O)N1CCN(c2ccc3c(c2)C(O)(C(F)(F)F)c2ccccc2-3)CC1 (stereo not shown) [compound 207]
IC50 [3]: 0.1 to 1 µM | IC50 [2]: 0.998 µM

Structure (SMILES): NC(=O)c1cc(C(=O)N2CCC2)cc2c1-c1ccccc1C2(O)C(F)(F)F (stereo not shown) [compound 174]
IC50 [3]: < 0.1 µM | IC50 [2]: 0.066 µM

Structure (SMILES): Cn1cc(-c2cc(C(=O)N3CC3)cc3c2-c2ccccc2C3(O)C(F)(F)F)cn1 (stereo not shown) [compound 414]
IC50 [3]: < 0.1 µM | IC50 [2]: 0.032 µM

Structure (SMILES): CC(C)n1cc(-c2cc(C(N)=O)c3c(c2)C(O)(C(F)(F)F)c2ccccc2-3)cn1 (stereo not shown) [compound 528]
IC50 [3]: < 0.1 µM | IC50 [2]: 0.049 µM

Structure (SMILES): C=C(C)c1cccc2c1-c1ccccc1C2(O)C(F)(F)F (stereo not shown) [compound 138]
IC50 [3]: > 1 µM | IC50 [2]: > 10 µM

Structure (SMILES): Cn1cc(-c2cnc3c(c2)C(O)(C(F)(F)F)c2ccccc2-3)cn1 (stereo not shown) [compound 562]
IC50 [3]: < 0.1 µM | IC50 [2]: 0.059 µM

Structure (SMILES): O=C(O)CCCCCOc1ccc2c(c1)C(O)(C(F)(F)F)c1ccccc1-2 (stereo not shown) [compound 318]
IC50 [3]: 0.1 to 1 µM | IC50 [2]: 0.553 µM

Structure (SMILES): Cc1cc(-c2cnn(CC(N)=O)c2)c2c(c1)C(O)(C(F)(F)F)c1ccccc1-2 (stereo not shown) [compound 507]
IC50 [3]: < 0.1 µM | IC50 [2]: 0.026 µM

Structure (SMILES): CN(CCOc1ccc2c(c1)C(O)(C(F)(F)F)c1ccccc1-2)C(=O)CO (stereo not shown) [compound 348]
IC50 [3]: 0.1 to 1 µM | IC50 [2]: 0.634 µM

Structure (SMILES): O=C(COc1cc(Br)c2c(c1)C(O)(C(F)(F)F)c1ccccc1-2)N1CCC1 (stereo not shown) [compound 437]
IC50 [3]: < 0.1 µM | IC50 [2]: 0.06 µM

Structure (SMILES): COc1ccc2c(c1)-c1ccccc1C2(O)C(F)(F)F (stereo not shown) [compound 47]
IC50 [3]: > 1 µM | IC50 [2]: 4.91 µM

Structure (SMILES): O=C(c1ccc2c(c1)C(O)(C(F)(F)F)c1ccccc1-2)N1CC(OCCO)C1 (stereo not shown) [compound 108]
IC50 [3]: 0.1 to 1 µM | IC50 [2]: 0.462 µM

Structure (SMILES): CCOC(=O)CCCOc1ccc2c(c1)C(O)(C(F)(F)F)c1ccccc1-2 (stereo not shown) [compound 257]
IC50 [3]: 0.1 to 1 µM | IC50 [2]: 0.567 µM

Structure (SMILES): NC(=O)COc1cnc2c(c1)C(O)(C(F)(F)F)c1ccccc1-2 (stereo not shown) [compound 434]
IC50 [3]: 0.1 to 1 µM | IC50 [2]: 0.561 µM

Structure (SMILES): NCCCOc1ccc2c(c1)C(O)(C(F)(F)F)c1ccccc1-2 (stereo not shown) [compound 331]
IC50 [3]: > 1 µM | IC50 [2]: 1.42 µM

Structure (SMILES): CC(C)(C)n1cc(-c2cc(CO)c3c(c2)C(O)(C(F)(F)F)c2ccccc2-3)cn1 (stereo not shown) [compound 638]
IC50 [1]: 0.1 to 1 µM | IC50 [2]: 0.127 µM

Structure (SMILES): OCCCCCCOc1ccc2c(c1)C(O)(C(F)(F)F)c1ccccc1-2 (stereo not shown) [compound 298]
IC50 [3]: 0.1 to 1 µM | IC50 [2]: 0.177 µM

Structure (SMILES): CCNC(=O)Cn1cc(-c2cccc3c2-c2ccccc2C3(O)C(F)(F)F)cn1 (stereo not shown) [compound 511]
IC50 [3]: < 0.1 µM | IC50 [2]: 0.056 µM

Structure (SMILES): CNC(=O)Cn1cc(-c2cc(F)cc3c2-c2ccccc2C3(O)C(F)(F)F)cn1 (stereo not shown) [compound 515]
IC50 [3]: < 0.1 µM | IC50 [2]: 0.038 µM

Structure (SMILES): CC(C)(C)COc1ccc2c(c1)C(O)(C(F)(F)F)c1ccccc1-2 (stereo not shown) [compound 279]
IC50 [3]: > 1 µM | IC50 [2]: 1.85 µM

Structure (SMILES): CCn1cc(-c2cccc3c2-c2ccccc2C3(O)C(F)(F)F)cn1 (stereo not shown) [compound 347]
IC50 [3]: < 0.1 µM | IC50 [2]: 0.088 µM

Structure (SMILES): OC1(C(F)(F)F)c2ccccc2-c2c(Cl)cc(-c3ccccc3)cc21 (stereo not shown) [compound 159]
IC50 [3]: 0.1 to 1 µM | IC50 [2]: 0.318 µM

Structure (SMILES): Cn1cc(-c2cc(OCCO)cc3c2-c2ccccc2C3(O)C(F)(F)F)cn1 (stereo not shown) [compound 456]
IC50 [3]: < 0.1 µM | IC50 [2]: 0.045 µM

Structure (SMILES): COC(=O)c1cc(C)c2c(c1)C(O)(C(F)(F)F)c1ccccc1-2 (stereo not shown) [compound 45]
IC50 [3]: 0.1 to 1 µM | IC50 [2]: 0.247 µM

Structure (SMILES): NC(=O)c1cc(-c2cnn(CCO)c2)cc2c1-c1ccccc1C2(O)C(F)(F)F (stereo not shown) [compound 536]
IC50 [3]: < 0.1 µM | IC50 [2]: 0.054 µM

Structure (SMILES): O=C(O)Cn1cc(-c2ccc3c(c2)C(O)(C(F)(F)F)c2cccc(CO)c2-3)cn1 (stereo not shown) [compound 608]
IC50 (read-out: PDHK inhibitory activity (class symbol)): > 1 µM | IC50 [2]: > 1 µM

Structure (SMILES): COC(=O)COc1ccc2c(c1)C(O)(C(F)(F)F)c1ccccc1-2 (stereo not shown) [compound 357]
IC50 [3]: > 1 µM | IC50 [2]: 1.94 µM

Structure (SMILES): O=C(c1ccc2c(c1)C(O)(C(F)(F)F)c1ccccc1-2)N1CC(CO)C1 (stereo not shown) [compound 87]
IC50 [3]: 0.1 to 1 µM | IC50 [2]: 0.669 µM

Structure (SMILES): CN(c1ccccc1)c1ccc2c(c1)C(O)(C(F)(F)F)c1ccccc1-2 (stereo not shown) [compound 186]
IC50 [3]: > 1 µM | IC50 [2]: 5.91 µM

Structure (SMILES): CN(CCOc1ccc2c(c1)C(O)(C(F)(F)F)c1ccccc1-2)CC(=O)O (stereo not shown) [compound 444]
IC50 [3]: > 1 µM | IC50 [2]: 3.93 µM

Structure (SMILES): O=C(c1cc(Cl)c2c(c1)C(O)(C(F)(F)F)c1ccccc1-2)N1CCC1 (stereo not shown) [compound 94]
IC50 [3]: < 0.1 µM | IC50 [2]: 0.049 µM

Structure (SMILES): NC(=O)c1ccc(-c2ccc3c(c2)C(O)(C(F)(F)F)c2ccccc2-3)cc1Cl (stereo not shown) [compound 239]
IC50 [3]: 0.1 to 1 µM | IC50 [2]: 0.178 µM

Structure (SMILES): O=C(O)CCn1cc(-c2cc(Cl)c3c(c2)C(O)(C(F)(F)F)c2ccccc2-3)cn1 (stereo not shown) [compound 517]
IC50 [3]: < 0.1 µM | IC50 [2]: 0.057 µM

Structure (SMILES): OCC(CO)c1noc(-c2cc(F)cc3c2-c2ccccc2C3(O)C(F)(F)F)n1 (single isomer, unassigned) [compound 685]
IC50 [1]: 0.1 to 1 µM | IC50 [2]: 0.338 µM

Structure (SMILES): CC(C)C(=O)c1cccc2c1-c1ccccc1C2(O)C(F)(F)F (stereo not shown) [compound 93]
IC50 [3]: > 1 µM | IC50 [2]: 29.5 µM

Structure (SMILES): CN(C)C(=O)COc1cc(-c2cnn(C)c2)c2c(c1)C(O)(C(F)(F)F)c1ccccc1-2 (stereo not shown) [compound 457]
IC50 [3]: < 0.1 µM | IC50 [2]: 0.03 µM

Structure (SMILES): CC(C)n1cc(-c2ccc3c(c2)C(O)(C(F)(F)F)c2cccc(CO)c2-3)cn1 (stereo not shown) [compound 593]
IC50 (class symbol of IC50, read-out: PDHK inhibitory activity): > 1 µM | IC50 [2]: > 1 µM

Structure (SMILES): OC1(C(F)(F)F)c2ccccc2-c2c(Br)cccc21 (stereo not shown) [compound 113]
IC50 [3]: > 1 µM | IC50 [2]: 1.11 µM

Structure (SMILES): OC1(C(F)(F)F)c2ccccc2-c2ccc(-c3cc(Cl)cc(Cl)c3)cc21 (stereo not shown) [compound 266]
IC50 [3]: > 1 µM | IC50 [2]: 1.56 µM

Structure (SMILES): COC(=O)C1CCN1C(=O)c1ccc2c(c1)C(O)(C(F)(F)F)c1ccccc1-2 (stereo not shown) [compound 304]
IC50 [3]: 0.1 to 1 µM | IC50 [2]: 0.723 µM

Structure (SMILES): Cn1cc(-c2cccc3c2-c2ccccc2C3(O)C(F)(F)F)cn1 (stereo not shown) [compound 263]
IC50 [3]: 0.1 to 1 µM | IC50 [2]: 0.133 µM

Structure (SMILES): O=C(NCCO)c1ccc2c(c1)C(O)(C(F)(F)F)c1ccccc1-2 (stereo not shown) [compound 310]
IC50 [3]: > 1 µM | IC50 [2]: > 10 µM

Structure (SMILES): CN(C)C(=O)c1cccc(-c2ccc3c(c2)C(O)(C(F)(F)F)c2ccccc2-3)c1 (stereo not shown) [compound 158]
IC50 [3]: 0.1 to 1 µM | IC50 [2]: 0.221 µM

Structure (SMILES): CN(C)C(=O)c1cccc2c1-c1ccccc1C2(O)C(F)(F)F (stereo not shown) [compound 35]
IC50 [3]: > 1 µM | IC50 [2]: > 100 µM

Structure (SMILES): OC1(C(F)(F)F)c2ccccc2-c2ccc(C3CC3)cc21 (stereo not shown) [compound 244]
IC50 [3]: > 1 µM | IC50 [2]: 2.93 µM

Structure (SMILES): CN(CCOc1cc(-c2cnn(C)c2)c2c(c1)C(O)(C(F)(F)F)c1ccccc1-2)C(=O)CO (stereo not shown) [compound 425]
IC50 [3]: < 0.1 µM | IC50 [2]: 0.021 µM

IC50 (PDHK inhibitory activity IC50 (μmol/L)): 0.022 µM | IC50 [3]: < 0.1 µM
Structure (SMILES): OC1(Cn2cc(-c3cc(F)cc4c3-c3ccccc3[C@]4(O)C(F)(F)F)cn2)CCCCC1 (stereo in doubt) [compound 544]

Structure (SMILES): COC(=O)c1cccc(-c2ccc3c(c2)C(O)(C(F)(F)F)c2ccccc2-3)c1 (stereo not shown) [compound 154]
IC50 [3]: 0.1 to 1 µM | IC50 [2]: 0.309 µM

Structure (SMILES): Cc1cccc(-c2ccc3c(c2)C(O)(C(F)(F)F)c2ccccc2-3)c1 (stereo not shown) [compound 137]
IC50 [3]: > 1 µM | IC50 [2]: 1.01 µM

Structure (SMILES): CCOC(=O)N1CCN(c2ccc3c(c2)C(O)(C(F)(F)F)c2ccccc2-3)CC1 (stereo not shown) [compound 211]
IC50 [3]: > 1 µM | IC50 [2]: 1.01 µM

Structure (SMILES): N#Cc1cc(C(=O)N2CCC2)cc2c1-c1ccccc1C2(O)C(F)(F)F (stereo not shown) [compound 141]
IC50 [3]: < 0.1 µM | IC50 [2]: 0.077 µM

Structure (SMILES): CCN(CC)C(=O)c1ccc2c(c1)C(O)(C(F)(F)F)c1ccccc1-2 (stereo not shown) [compound 54]
IC50 [3]: > 1 µM | IC50 [2]: 21.9 µM

Structure (SMILES): O=C(c1ccc2c(c1)C(O)(C(F)(F)F)c1ccccc1-2)N1CC(C(=O)N2CCC(O)C2)C1 (stereo not shown) [compound 337]
IC50 [3]: 0.1 to 1 µM | IC50 [2]: 0.499 µM

Structure (SMILES): O=C(O)c1ccc(-c2ccc3c(c2)C(O)(C(F)(F)F)c2ccccc2-3)cc1Cl (stereo not shown) [compound 238]
IC50 [3]: 0.1 to 1 µM | IC50 [2]: 0.252 µM

Structure (SMILES): CC1CCCN1c1ccc2c(c1)C(O)(C(F)(F)F)c1ccccc1-2 (stereo not shown) [compound 293]
IC50 [3]: > 1 µM | IC50 [2]: 4.95 µM

Structure (SMILES): OCc1ccccc1-c1ccc2c(c1)C(O)(C(F)(F)F)c1ccccc1-2 (stereo not shown) [compound 189]
IC50 [3]: > 1 µM | IC50 [2]: 6 µM

Structure (SMILES): Cc1ccc2c(c1)C(O)(C(F)(F)F)c1ccccc1-2 (stereo not shown) [compound 3]
IC50 [3]: > 1 µM | IC50 [2]: 1.57 µM

Structure (SMILES): CN(C)c1cccc2c1-c1ccccc1C2(O)C(F)(F)F (stereo not shown) [compound 84]
IC50 [3]: > 1 µM | IC50 [2]: 42.1 µM
